From US20080004253A1, “Thiazolopyrimidine modulators of TRPV1” (priority 2006, published 2008)

Tests used:
human TRPV1 = biological target: T1, human TRPV1 (Homo sapiens, UniProt Q8NER1); test: Functional assay: block of capsaicin-induced Ca2+ influx, human assay (hTRPV1/HEK293, FLIPR); type: cell-based; conditions: hTRPV1/HEK293 cells, 150 nM capsaicin challenge, Fluo-3 fluorescence; mean; > value = solubility limit in assay medium
T1 construct: expressed in transfected cells; host or cells: HEK293 (hTRPV1/HEK293), zeocin selection
T1 sequence (Q8NER1 whole entry): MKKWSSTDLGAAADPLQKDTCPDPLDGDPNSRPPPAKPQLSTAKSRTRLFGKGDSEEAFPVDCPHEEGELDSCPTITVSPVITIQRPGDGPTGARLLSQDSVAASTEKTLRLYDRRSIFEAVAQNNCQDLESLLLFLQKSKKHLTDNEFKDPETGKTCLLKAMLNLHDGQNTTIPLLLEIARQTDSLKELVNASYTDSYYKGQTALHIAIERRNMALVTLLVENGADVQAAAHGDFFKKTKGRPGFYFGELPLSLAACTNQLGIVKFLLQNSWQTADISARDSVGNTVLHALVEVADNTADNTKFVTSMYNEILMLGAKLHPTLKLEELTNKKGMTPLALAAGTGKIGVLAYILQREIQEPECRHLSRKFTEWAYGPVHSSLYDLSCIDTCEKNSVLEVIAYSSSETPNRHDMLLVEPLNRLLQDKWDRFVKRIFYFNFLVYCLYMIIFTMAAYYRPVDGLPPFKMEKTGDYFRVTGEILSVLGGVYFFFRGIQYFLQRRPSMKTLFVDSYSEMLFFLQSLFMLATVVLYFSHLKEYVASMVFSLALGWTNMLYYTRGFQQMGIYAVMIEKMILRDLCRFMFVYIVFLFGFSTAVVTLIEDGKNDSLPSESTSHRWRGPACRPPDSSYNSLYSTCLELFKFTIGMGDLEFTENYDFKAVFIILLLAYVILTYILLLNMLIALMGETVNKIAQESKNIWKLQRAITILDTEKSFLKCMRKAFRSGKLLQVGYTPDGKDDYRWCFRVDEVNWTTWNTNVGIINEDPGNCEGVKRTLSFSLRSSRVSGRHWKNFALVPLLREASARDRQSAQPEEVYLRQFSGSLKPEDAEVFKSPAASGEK
How it was run: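 HEK293 cells stably expressing human TRPV1, fluo3-loaded, preincubated 30 min with compound (serial 3-fold dilutions from 10 μM, duplicate) in 20 μM Ca2+ buffer. Capsaicin response taken as fluo3 fluorescence change before vs 100 s after agonist; IC50 by non-linear regression, mean values; free base or TFA salt.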

rat TRPV1 = biological target: T2, rat TRPV1 (Rattus norvegicus, UniProt O35433); test: Functional assay: block of capsaicin-induced Ca2+ influx, rat assay (rTRPV1/HEK293, FLIPR); type: cell-based; conditions: rTRPV1/HEK293 cells, capsaicin challenge, Fluo-3 fluorescence; mean; > value = solubility limit in assay medium
T2 construct: expressed in transfected cells; host or cells: HEK293 (rTRPV1/HEK293), geneticin selection
T2 sequence (O35433 whole entry): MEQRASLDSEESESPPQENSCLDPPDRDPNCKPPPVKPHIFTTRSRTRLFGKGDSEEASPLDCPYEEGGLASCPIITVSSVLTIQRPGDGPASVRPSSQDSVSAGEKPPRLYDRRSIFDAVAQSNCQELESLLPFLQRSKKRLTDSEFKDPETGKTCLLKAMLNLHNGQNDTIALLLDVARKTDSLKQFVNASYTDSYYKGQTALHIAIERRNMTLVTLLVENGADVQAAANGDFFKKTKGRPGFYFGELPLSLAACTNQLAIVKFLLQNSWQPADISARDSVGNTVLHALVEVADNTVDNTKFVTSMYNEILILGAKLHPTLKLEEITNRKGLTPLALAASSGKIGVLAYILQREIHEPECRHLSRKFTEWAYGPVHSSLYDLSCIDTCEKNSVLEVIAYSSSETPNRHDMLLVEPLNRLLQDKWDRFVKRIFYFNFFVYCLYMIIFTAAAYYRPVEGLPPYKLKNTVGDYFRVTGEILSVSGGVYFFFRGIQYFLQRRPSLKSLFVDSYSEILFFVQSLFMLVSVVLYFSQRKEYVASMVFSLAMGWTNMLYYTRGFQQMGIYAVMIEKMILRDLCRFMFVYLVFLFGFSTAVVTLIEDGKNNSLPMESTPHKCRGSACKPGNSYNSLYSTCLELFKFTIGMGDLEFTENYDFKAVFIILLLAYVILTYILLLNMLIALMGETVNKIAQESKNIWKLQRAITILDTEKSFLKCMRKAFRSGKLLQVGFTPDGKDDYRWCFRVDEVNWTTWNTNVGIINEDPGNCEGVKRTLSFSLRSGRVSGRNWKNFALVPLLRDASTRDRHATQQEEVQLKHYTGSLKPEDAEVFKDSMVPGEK
How it was run: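 HEK293 cells expressing rat TRPV1, loaded with fluo3 and preincubated 30 min with compound in 20 μM Ca2+ buffer before capsaicin challenge. Block read as fluo3 fluorescence change over 100 s after agonist, 3-fold series from 10 μM in duplicate. IC50 by non-linear regression, mean values.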

Compound | IC50 (human TRPV1) | IC50 (rat TRPV1)
Cc1cccc(C)c1Nc1nc2c(Nc3ccc(S(=O)(=O)C(F)(F)F)cc3)ncnc2s1 [Example 99, N^2-(2,6-Dimethyl-phenyl)-N^7-(4-trifluoromethanesulfonyl-phenyl)-thiazolo[5,4-d]pyrimidine-2,7-diamine] | 17 nM | 4 nM
Cc1nc(Nc2ccc(C#N)cc2)c2nc(Nc3c(Cl)cccc3Cl)sc2n1 [Example 96, 4-[2-(2,6-Dichloro-phenylamino)-5-methyl-thiazolo[5,4-d]pyrimidin-7-ylamino]-benzonitrile] | 12 nM | 9 nM
Cc1nc(Nc2ccc(C(F)(F)F)c(Cl)c2)c2nc(Nc3c(Cl)cccc3Cl)sc2n1 [Example 30, N^7-(3-Chloro-4-trifluoromethyl-phenyl)-N^2-(2,6-dichloro-phenyl)-5-methyl-thiazolo[5,4-d]pyrimidine-2,7-diamine] | 3 nM | 3 nM
Cc1cccc(C)c1Nc1nc2c(Nc3ccc(C(F)(F)F)nc3)ncnc2s1 [Example 11, N^2-(2,6-Dimethyl-phenyl)-N^7-(6-trifluoromethyl-pyridin-3-yl)-thiazolo[5,4-d]pyrimidine-2,7-diamine] | 23 nM | 7 nM
Cc1cccc(C)c1Nc1nc2c(Nc3ccc(C#N)c(Cl)c3)ncnc2s1 [Example 142, 2-Chloro-4-[2-(2,6-dimethyl-phenylamino)-thiazolo[5,4-d]pyrimidin-7-ylamino]-benzonitrile] | 394 nM | 231 nM
Cc1ccccc1Nc1nc2c(Nc3ccc(S(=O)(=O)N4CCCC4)cc3)ncnc2s1 [Example 83, N^7-[4-(Pyrrolidine-1-sulfonyl)-phenyl]-N^2-o-tolyl-thiazolo[5,4-d]pyrimidine-2,7-diamine] | 3 nM | 2 nM
Cc1nc(Nc2ccc(C(C)C)cc2)c2nc(Nc3c(C)cccc3C)sc2n1 [Example 125, N^2-(2,6-Dimethyl-phenyl)-N^7-(4-isopropyl-phenyl)-5-methyl-thiazolo[5,4-d]pyrimidine-2,7-diamine] | 123 nM | 19 nM
CSc1nc(Nc2ccc(S(=O)(=O)N(C)C)cc2)c2nc(Nc3c(Cl)cccc3Cl)sc2n1 [Example 127, 4-[2-(2,6-Dichloro-phenylamino)-5-methylsulfanyl-thiazolo[5,4-d]pyrimidin-7-ylamino]-N,N-dimethyl-benzenesulfonamide] | 138 nM | 59 nM
FC(F)(F)c1ccc(Nc2nc(N3CCNCC3)nc3sc(Nc4c(Cl)cccc4Cl)nc23)cc1 [Example 163, N^2-(2,6-Dichloro-phenyl)-5-piperazin-1-yl-N^7-(4-trifluoromethyl-phenyl)-thiazolo[5,4-d]pyrimidine-2,7-diamine] | 5950 nM | 5140 nM
CC1CCCN1c1nc(Nc2ccc(C(F)(F)F)cc2)c2nc(Nc3c(Cl)cccc3Cl)sc2n1 (racemic) [Example 105, (racemic)-N^2-(2,6-Dichloro-phenyl)-5-(2-methyl-pyrrolidin-1-yl)-N^7-(4-trifluoromethyl-phenyl)-thiazolo[5,4-d]pyrimidine-2,7-diamine] | 24 nM | 17 nM
Cc1cccc(C)c1Nc1nc2c(Nc3ccc(S(=O)(=O)N(C)C)cc3)ncnc2s1 [Example 98, 4-[2-(2,6-Dimethyl-phenylamino)-thiazolo[5,4-d]pyrimidin-7-ylamino]-N,N-dimethyl-benzenesulfonamide] | 15 nM | 7 nM
Cc1nc(Nc2ccc(C(=O)N(C)C)cc2)c2nc(Nc3c(Cl)cccc3Cl)sc2n1 [Example 157, 4-[2-(2,6-Dichloro-phenylamino)-5-methyl-thiazolo[5,4-d]pyrimidin-7-ylamino]-N,N-dimethyl-benzamide] | 1920 nM | 1210 nM
CCCCOc1nc(Nc2ccc(C(F)(F)F)cc2)c2nc(Nc3c(Cl)cccc3Cl)sc2n1 [Example 189, 5-Butoxy-N^2-(2,6-dichloro-phenyl)-N^7-(4-trifluoromethyl-phenyl)-thiazolo[5,4-d]pyrimidine-2,7-diamine] | 19 nM | 8 nM
Cc1nc(Nc2ccc(S(=O)(=O)C(C)C)cc2)c2nc(Nc3c(C)cccc3C)sc2n1 [Example 102, N^2-(2,6-Dimethyl-phenyl)-5-methyl-N^7-[4-(Propane-2-sulfonyl)-phenyl]-thiazolo[5,4-d]pyrimidine-2,7-diamine] | 18 nM | 19 nM
Cc1cccc(C)c1Nc1nc2c(Nc3ccc(S(=O)(=O)C(C)C)cc3)ncnc2s1 [Example 122, N^2-(2,6-Dimethyl-phenyl)-N^7-[4-(Propane-2-sulfonyl)-phenyl]-thiazolo[5,4-d]pyrimidine-2,7-diamine] | 87 nM | 129 nM
CC(C)C1CCCN1c1nc(Nc2ccc(C(F)(F)F)cc2)c2nc(Nc3c(Cl)cccc3Cl)sc2n1 (racemic) [Example 89, (racemic)-N^2-(2,6-Dichloro-phenyl)-5-(2-isopropyl-pyrrolidin-1-yl)-N^7-(4-trifluoromethyl-phenyl)-thiazolo[5,4-d]pyrimidine-2,7-diamine] | 7 nM | 2 nM
Cc1cccc(C)c1Nc1nc2c(Nc3ccc(C(=O)N(C)C)cc3)ncnc2s1 [Example 145, 4-[2-(2,6-Dimethyl-phenylamino)-thiazolo[5,4-d]pyrimidin-7-ylamino]-N,N-dimethyl-benzamide] | 452 nM | 442 nM
Cc1cccc(C)c1Nc1nc2c(Nc3ccc(N(C)S(C)(=O)=O)cc3)ncnc2s1 [Example 161, N-{4-[2-(2,6-Dimethyl-phenylamino)-thiazolo[5,4-d]pyrimidin-7-ylamino]-phenyl}-N-methyl-methanesulfonamide] | 3780 nM | 2290 nM

Now from value to molecule:

IC50 (human TRPV1) | IC50 (rat TRPV1) | Compound
48 nM | 76 nM | O=S(=O)(c1ccc(Nc2ncnc3sc(Nc4ccccc4Cl)nc23)cc1)C(F)(F)F [Example 203, N^2-(2-Chloro-phenyl)-N^7-(4-trifluoromethanesulfonyl-phenyl)-thiazolo[5,4-d]pyrimidine-2,7-diamine]
820 nM | 3200 nM | COC(=O)c1cc(Cl)c(Nc2nc3c(Nc4ccc(C(F)(F)F)cc4)ncnc3s2)c(Cl)c1 [Example 241, 3,5-Dichloro-4-[7-(4-trifluoromethyl-phenylamino)-thiazolo[5,4-d]pyrimidin-2-ylamino]-benzoic acid methyl ester]
401 nM | 398 nM | Cc1nc(Nc2ccc(C(F)(F)F)cc2)c2nc(Nc3c(C)noc3C)sc2n1 [Example 208, N^2-(3,5-Dimethyl-isoxazol-4-yl)-5-methyl-N^7-(4-trifluoromethyl-phenyl)thiazolo[5,4-d]pyrimidine-2,7-diamine]
758 nM | 345 nM | COC(=O)c1scc(C)c1Nc1nc2c(Nc3ccc(C(F)(F)F)c(Cl)c3)ncnc2s1 [Example 207, 3-[7-(3-Chloro-4-trifluoromethyl-phenylamino)-thiazolo[5,4-d]pyrimidin-2-ylamino]-4-methyl-thiophene-2-carboxylic acid methyl ester]
4610 nM | 6540 nM | O=C(O)c1cc(Cl)c(Nc2nc3c(Nc4ccc(C(F)(F)F)cc4)ncnc3s2)c(Cl)c1 [Example 243, 3,5-Dichloro-4-[7-(4-trifluoromethyl-phenylamino)-thiazolo[5,4-d]pyrimidin-2-ylamino]-benzoic acid]
6 nM | 5 nM | Cc1nc(Nc2ccc(C(F)(F)F)cc2)c2nc(Nc3c(C)cccc3C)sc2n1 [Example 245, N^2-(2,6-Dimethyl-phenyl)-5-methyl-N^7-(4-trifluoromethyl-phenyl)-thiazolo[5,4-d]pyrimidine-2,7-diamine]
698 nM | 81 nM | CC(C)OC(=O)C(C)(C)c1ccc(Nc2ncnc3sc(Nc4c(Cl)cccc4Cl)nc23)cc1 [Example 231, 1-Methylethyl 2-[4-({2-[(2,6-dichlorophenyl)amino][1,3]thiazolo[5,4-d]pyrimidin-7-yl}amino)phenyl]-2-methylpropanoate]
809 nM | 1320 nM | CN1CCN(c2nc(Nc3ccc(C(F)(F)F)cc3)c3nc(Nc4c(Cl)cccc4Cl)sc3n2)CC1 [Example 187, N^2-(2,6-Dichloro-phenyl)-5-(4-methyl-piperazin-1-yl)-N^7-(4-trifluoromethyl-phenyl)-thiazolo[5,4-d]pyrimidine-2,7-diamine]
> 6670 nM | > 6670 nM | COc1ccc(Nc2ncnc3sc(Nc4c(C)cccc4C)nc23)cc1C(F)(F)F [Example 168, N^2-(2,6-Dimethyl-phenyl)-N^7-(4-methoxy-3-trifluoromethyl-phenyl)-thiazolo[5,4-d]pyrimidine-2,7-diamine]
3.3 nM | 0.7 nM | C[C@@H](O)CNc1nc(Nc2ccc(C(F)(F)F)cc2)c2nc(Nc3c(Cl)cccc3Cl)sc2n1 [Example 250, (R)-1-[2-(2,6-Dichloro-phenylamino)-7-(4-trifluoromethyl-phenylamino)-thiazolo[5,4-d]pyrimidin-5-ylamino]-propan-2-ol]
90 nM | 61 nM | NC(=O)c1cc(Cl)c(Nc2nc3c(Nc4ccc(C(F)(F)F)cc4)ncnc3s2)c(Cl)c1 [Example 235, 3,5-Dichloro-4-[7-(4-trifluoromethyl-phenylamino)-thiazolo[5,4-d]pyrimidin-2-ylamino]-benzamide]
